# Data from patent US11571011B2, “Compositions of steviol multiglycosylated derivatives and stevia components” (SWEET GREEN FIELDS USA LLC, priority 2015, dated 2023).
# “And” between values parts separate entries of the source, which are not always exact repeats. Identical values can stand only once.
# What was measured:
# [1] = Calculated versus measured sweetness of GSG / steviol glycoside compositions from sweetness curves (synergistic effect); design: species or system human; conditions: for Calculated SE of RA97: citric acid pH 3.8
# Experimental: The sweetness of GSG-RA50 and RA97 compositions at varying concentrations was measured according to the sweetness curve (FIG. 9), and the combined sweetness of each composition of GSG-RA50 and RA97 was calculated and compared with the measured value in Table 19.
# Calculated SE (ppm sucrose) of GSG-RA50 per ppm=calculated SE of GSG-RA50/concentration of GSG-RA50. Measured sweetness (ppm sucrose) of GSG-RA50 per ppm=(Measured SE−Calculated SE of RA97)/concentration of GSG-RA50.
# The sweetness of GSG-RA95 and rebaudioside A, 97% purity (RA) RA97 compositions at varying concentrations was measured according to the sweetness curve (FIG. 13), and the combined sweetness of each composition of GSG-RA95 and RA97 was calculated and compared with the measured value in Table 23.
# Calculated sweetness (ppm sugar) of GSG-RA50 per ppm=calculated SE of GSG-RA50/concentration of GSG-RA50. Measured sweetness (ppm sugar) of GSG-RA50 per ppm=(Measured SE-calculated SE of RA97)/concentration of GSG-RA50.
# Calculated sweetness (ppm sugar) of GSG-RA20 plus RA97 per ppm=calculated SE of GSG-RA20 plus RA97/concentration of GSG-RA20 plus RA97
# Measured sweetness (ppm sugar) of GSG-RA20 plus RA97 per ppm=(Measured SE of GSG-RA20 plus RA97−sugar concentration)/concentration of GSG-RA20 plus RA97
# [2] = Evaluation of taste profile: sugar like, bitterness, aftertaste, lingering scored 0-5 by sensory panel; assay type: in vivo, human
# Experimental: 1. The components where mixed and then dissolved in aqueous citric acid (pH 3.8) with ultrasound at room temperature and left to sit for 30 min.
# For evaluation of taste profile, the samples were tested and were scored 0-5 according to the increasing sugar like, bitterness, aftertaste and lingering taste profiles. The results were recorded as the mean value of the results provided by the panel.
# [3] = Solubility of spray-dried GSG-RA20 / steviol glycoside 1:1 compositions (Example 56); assay type: physicochemical
# Experimental: GSG-RA20 was mixed with RA, RB, RD or stevioside as the ratio of 1:1 by weight so as to obtain a mixture, a certain amount of solvent, such as water, ethanol/water mixture, was added into the obtained mixture, heated to a certain temperature until the mixture was completely dissolved, and the temperature was kept for an hour. The solution was treated by spray drying to obtain the composition comprising GSG and SG.
# [4] = background; cited from earlier work
# [5] = RA97 400 ppm (control), citric acid pH 3.8
# [6] = total solid content 350 ppm, panel score
# [7] = 0.01 g of each component in 10 ml water
compound,measurement,setting,value
"C=C1C[C@@]23CC[C@H]4[C@@](C)(CCC[C@@]4(C)C(=O)O[C@@H]4O[C@H](CO)[C@@H](O)[C@H](O)[C@H]4O)[C@@H]2CC[C@]1(O[C@@H]1O[C@H](CO)[C@@H](O)[C@H](O[C@@H]2O[C@H](CO)[C@@H](O)[C@H](O)[C@H]2O)[C@H]1O[C@@H]1O[C@H](CO)[C@@H](O)[C@H](O)[C@H]1O)C3 [RA97, Rebaudioside A]",Calc. SE of RA97,"[1]; RA97 50 ppm, read from sweetness curve",1.5%
same,Calc. SE of RA97,"[1]; RA97 50 ppm, with GSG-RA90, 350 ppm total solids",1.5%
same,Calc. SE of RA97,"[1]; RA97 100 ppm, read from sweetness curve",3% and 3.2%
same,Calculated SE of RA97,[1]; RA97 100 ppm,3%
same,Calc. SE of RA97,"[1]; RA97 100 ppm, with GSG-RA90, 350 ppm total solids",3.2%
same,Calc. SE of RA97,"[1]; RA97 100 ppm, with GSG-RA95, 200 ppm total solids",3%
same,Calc. SE of RA97,"[1]; RA97 150 ppm, read from sweetness curve",4.2% and 4%
same,Calculated SE of RA97,[1]; RA97 150 ppm,4.20%
same,Calc. SE of RA97,"[1]; RA97 150 ppm, with GSG-RA90, 350 ppm total solids",4%
same,Calc. SE of RA97,"[1]; RA97 150 ppm, with GSG-RA95, 200 ppm total solids",4.2%
same,Calc. SE of RA97,"[1]; RA97 200 ppm, read from sweetness curve",5%
same,Calculated SE of RA97,[1]; RA97 200 ppm,5%
same,Calc. SE of RA97,"[1]; RA97 200 ppm, with GSG-RA90, 350 ppm total solids",5%
same,Calc. SE of RA97,"[1]; RA97 250 ppm, read from sweetness curve",6%
same,Calculated SE of RA97,[1]; RA97 250 ppm,6%
same,Calc. SE of RA97,"[1]; RA97 250 ppm, with GSG-RA90, 350 ppm total solids",6%
same,Calc. SE of RA97,"[1]; RA97 300 ppm, read from sweetness curve",6.9% and 7%
same,Calculated SE of RA97,[1]; RA97 300 ppm,6.90%
same,Calc. SE of RA97,"[1]; RA97 300 ppm, with GSG-RA90, 350 ppm total solids",6.9%
same,Calc. SE of RA97,"[1]; RA97 300 ppm, with GSG-RA95, 500 ppm total solids",7%
same,Calc. SE of RA97,"[1]; RA97 400 ppm, read from sweetness curve",8.25%
same,Calc. SE of RA97,"[1]; RA97 400 ppm, with GSG-RA95, 500 ppm total solids",8.25%
same,Measured SE of the composition,"[1]; RA97 alone, 350 ppm, no GSG",8%
same,Calculated SE of the single component (steviol glycoside composition or GSG) alone,[1]; component at 150 ppm,4.00%
same,Calculated SE of the single component (steviol glycoside composition or GSG) alone,[1]; component at 200 ppm,5.00%
same,Calculated SE of the single component (steviol glycoside composition or GSG) alone,[1]; component at 250 ppm,6.00%
same,Aftertaste,[2]; [5],3
same,Bitterness,[2]; [5],2
same,Lingering,[2]; [5],4
same,Sugar like,[2]; [5],3
same,Aftertaste,[2]; [6],3
same,Bitterness,[2]; [6],2
same,Lingering,[2]; [6],4
same,Sugar like,[2]; [6],3
C=C1C[C@@]23CC[C@H]4[C@@](C)(CCC[C@@]4(C)C(=O)O[C@@H]4O[C@H](CO)[C@@H](O)[C@H](O)[C@H]4O)[C@@H]2CC[C@]1(O[C@@H]1O[C@H](CO)[C@@H](O)[C@H](O[C@@H]2O[C@H](CO)[C@@H](O)[C@H](O)[C@H]2O)[C@H]1O[C@@H]1O[C@H](CO)[C@@H](O)[C@H](O)[C@H]1O)C3 [Rebaudioside A],Stable time,[3]; 1 g in 10 ml water,2 h
C=C1C[C@@]23CC[C@H]4[C@@](C)(CCC[C@@]4(C)C(=O)O[C@@H]4O[C@H](CO)[C@@H](O)[C@H](O)[C@H]4O[C@@H]4O[C@H](CO)[C@@H](O)[C@H](O)[C@H]4O)[C@@H]2CC[C@]1(O[C@@H]1O[C@H](CO)[C@@H](O)[C@H](O[C@@H]2O[C@H](CO)[C@@H](O)[C@H](O)[C@H]2O)[C@H]1O[C@@H]1O[C@H](CO)[C@@H](O)[C@H](O)[C@H]1O)C3 [Rebaudioside D],Stable time,[3]; [7],insoluble
C=C1C[C@@]23CC[C@H]4[C@@](C)(CCC[C@@]4(C)C(=O)O[C@@H]4O[C@H](CO)[C@@H](O)[C@H](O)[C@H]4O)[C@@H]2CC[C@]1(O[C@@H]1O[C@H](CO)[C@@H](O)[C@H](O)[C@H]1O[C@@H]1O[C@H](CO)[C@@H](O)[C@H](O)[C@H]1O)C3 [Stevioside],times sweeter than sugar,[4],approximately 300 times
Rebaudioside B,Stable time,[3]; [7],insoluble
